For the assay, the system named is HCT116 MTAP-deleted cell lines. Nature of the assay: Cell viability assay (CellTiter-Glo, 7 days), HCT116 MTAP-deleted. The class given is cell-based. The conditions noted are these: Homo sapiens, HCT-116, HCT116 MTAP-deleted, class symbols, read-out: CC50. The method, boiled down:
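HCT116 MTAP-deleted and wild-type cells exposed to serially diluted compound for 7 days at 37 °C, 5% CO2. Viability read by CellTiter-Glo luminescence; CC50 derived per line, with selectivity comparing WT to MTAP-deleted, limited solubility can inflate values marked *.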
A general note: Cellular ATP, detected with luciferase, serves as a proxy for viable cell number.

Molecules are shown by their SMILES. Read-outs that look alike come from different tables or passages of the source.

The source of these data is patent US12448388B2, “PRMT5 inhibitors and uses thereof” (Gilead Sciences, Inc., priority 2023, dated 2025).

The CC50 is the concentration giving 50% cytotoxicity. With `Cn1cc(N(Cc2ccc(C(F)(F)F)cc2F)C(=O)c2cc3c(cc2F)nc(N)c2cncn23)c(Cl)n1` [Ff-421, 4-amino-N-(3-chloro-1-methyl-pyrazol-4-yl)-7-fluoro-N-[[2-fluoro-4-(trifluoromethyl)phenyl]methyl]imidazo[1,5-a]quinoxaline-8-carboxamide], where the note is “cell viability assay”, the CC50 is less than 100 nM. Still for that read-out and setting: in the case of `Nc1nc2cc(C3CC3)c(C(=O)N3CCC[C@@H]4Oc5cc(C(F)(F)F)ccc5[C@@H]43)cc2n2cncc12` [Fg-56, (4-amino-7-cyclopropylimidazo[1,5-a]quinoxalin-8-yl)((4aS,9bS)-7-(trifluoromethyl)-3,4,4a,9b-tetrahydrobenzofuro[3,2-b]pyridin-1(2H)-yl)methanone] it was 100 to 1000 nM.

Consider `Cc1ncc2c(N)nc3cc(F)c(C(=O)N(C)[C@@H]4CCc5nc(C(F)(F)F)ccc54)cc3n12` [Ff-317, (R)-4-amino-7-fluoro-N,1-dimethyl-N-(2-(trifluoromethyl)-6,7-dihydro-5H-cyclopenta[b]pyridin-5-yl)imidazo[1,5-a]quinoxaline-8-carboxamide], for which, for the setting “cell viability”, the CC50 lay within 100 to 1000 nM. The same measure, in the same setting: then `Nc1nc2cc(F)c(C(=O)N3CCC[C@@H]4Oc5cc(C(F)(F)F)c(F)cc5[C@@H]43)cc2n2cncc12` [Ff-105, (4-amino-7-fluoroimidazo[1,5-a]quinoxalin-8-yl)((4aS,9bS)-8-fluoro-7-(trifluoromethyl)-3,4,4a,9b-tetrahydrobenzofuro[3,2-b]pyridin-1(2H)-yl)methanone], with less than 100 nM; and `Nc1nc2cc(F)c(C(=O)N3CCO[C@@H]4Cc5cc(-c6ccc(C(F)(F)F)cc6)ccc5[C@@H]43)cc2n2cncc12` [Ff-240, (4-amino-7-fluoroimidazo[1,5-a]quinoxalin-8-yl)((4aS,9aR)-7-(4-(trifluoromethyl)phenyl)-2,3,9,9a-tetrahydroindeno[2,1-b][1,4]oxazin-4(4aH)-yl)methanone], with 100 to 1000 nM. Turning to `CN(C(=O)c1cc2c(cc1F)nc(N)c1cncn12)C1COc2ccc(C(F)(F)F)cc21` (stereo not shown) [Ff-458, 4-amino-7-fluoro-N-methyl-N-(5-(trifluoromethyl)-2,3-dihydrobenzofuran-3-yl)imidazo[1,5-a]quinoxaline-8-carboxamide], the CC50 (cell viability assay) is less than 100 nM. On to `C[C@@H]1CN(C(=O)c2cc3c(cc2F)nc(N)c2cncn23)[C@H]2c3ccc(C(F)F)c(F)c3C[C@H]2O1` [Ff-170, (4-amino-7-fluoroimidazo[1,5-a]quinoxalin-8-yl)((2R,4aS,9aR)-7-(difluoromethyl)-8-fluoro-2-methyl-2,3,9,9a-tetrahydroindeno[2,1-b][1,4]oxazin-4(4aH)-yl)methanone], for which the CC50 (cell viability) was less than 100 nM. On the same count and under the same terms, then `CC(=O)N(C)N(Cc1ccc(C(F)(F)F)cc1Cl)C(=O)c1cc2c(cc1F)nc(N)c1cncn12` [Fb-1, N′-acetyl-4-amino-N-(2-chloro-4-(trifluoromethyl)benzyl)-7-fluoro-N′-methylimidazo[1,5-a]quinoxaline-8-carbohydrazide], with less than 100 nM.

For the molecule `Nc1nc2cc(F)c(C(=O)N3CCCCC4Oc5cc(C(F)(F)F)ccc5C43)cc2n2cncc12` (stereo not shown) [Ff-432, (4-amino-7-fluoro-imidazo[1,5-a]quinoxalin-8-yl)-[8-(trifluoromethyl)-2,3,4,5,5a,10b-hexahydrobenzofuro[3,2-b]azepin-1-yl]methanone], the CC50 (cell viability assay) was less than 100 nM.

As to `CN(Cc1ccc2c(c1)OC(F)(F)O2)C(=O)c1ccc2nc(N)c3cncn3c2c1` [Ff-123, 4-amino-N-((2,2-difluorobenzo[d][1,3]dioxol-5-yl)methyl)-N-methylimidazo[1,5-a]quinoxaline-8-carboxamide], the CC50 (cell viability) was 100 to 1000 nM. With `C[C@H](c1ccc(C(F)(F)F)cc1F)N(C)C(=O)c1cc2c(cc1F)nc(N)c1cncn12` [Ff-534, (R)-4-amino-7-fluoro-N-(1-(2-fluoro-4-(trifluoromethyl)phenyl)ethyl)-N-methylimidazo[1,5-a]quinoxaline-8-carboxamide], the CC50 (cell viability assay) is less than 100 nM. Take `C[C@H](c1ncccn1)N(Cc1ccc(C(F)(F)F)cc1F)C(=O)c1cc2c(cc1F)nc(N)c1cncn12` [Ff-416, 4-amino-7-fluoro-N-[[2-fluoro-4-(trifluoromethyl)phenyl]methyl]-N-[(1R)-1-pyrimidin-2-ylethyl]imidazo[1,5-a]quinoxaline-8-carboxamide]: the half-maximal cytotoxic concentration (CC50) (cell viability assay) is less than 100 nM. Consider `Cc1ncn2c1c(N)nc1cc(F)c(C(=O)N3CC[C@H]4C[C@@H]3c3ccc(C(F)(F)F)nc3O4)cc12` [Fg-33, (4-amino-7-fluoro-3-methylimidazo[1,5-a]quinoxalin-8-yl)((2S,6R)-9-(trifluoromethyl)-3,4-dihydro-2H-2,6-methanopyrido[2,3-b][1,5]oxazocin-5(6H)-yl)methanone], for which the CC50 (cell viability assay) is less than 100 nM.

Take `CO[C@H]1COCC[C@H]1N(Cc1ccc(C(F)(F)F)cc1F)C(=O)c1cc2c(cc1F)nc(N)c1cncn12` [Ff-274, 4-amino-7-fluoro-N-(2-fluoro-4-(trifluoromethyl)benzyl)-N-((3R,4R)-3-methoxytetrahydro-2H-pyran-4-yl)imidazo[1,5-a]quinoxaline-8-carboxamide]: the CC50 (cell viability) is less than 100 nM.

As for `Cc1ncn2c1c(N)nc1cnc(C(=O)N3C[C@@H](C)C[C@@H]4Oc5cc(C(F)(F)F)ccc5[C@@H]43)cc12` [Fg-37, (4-amino-3-methylimidazo[1,5-a]pyrido[3,4-e]pyrazin-8-yl)((3S,4aS,9bS)-3-methyl-7-(trifluoromethyl)-3,4,4a,9b-tetrahydrobenzofuro[3,2-b]pyridin-1(2H)-yl)methanone], the CC50 (cell viability assay) was less than 100 nM.

In the case of `Nc1nc2cc(F)c(C(=O)N3CCO[C@@H]4Cc5cc(C(F)(F)F)c(F)cc5[C@@H]43)cc2n2cncc12` [Ff-326, (4-amino-7-fluoroimidazo[1,5-a]quinoxalin-8-yl)((4aS,9aR)-6-fluoro-7-(trifluoromethyl)-2,3,9,9a-tetrahydroindeno[2,1-b][1,4]oxazin-4(4aH)-yl)methanone], the CC50 (cell viability) was less than 100 nM. Consider `CN(C(=O)c1cc2c(cc1F)nc(N)c1cncn12)[C@@H](c1ccc(OC(F)(F)F)cc1)C(F)F` [Fb-13, (S)-4-amino-N-(2,2-difluoro-1-(4-(trifluoromethoxy)phenyl)ethyl)-7-fluoro-N-methylimidazo[1,5-a]quinoxaline-8-carboxamide], for which the CC50 (cell viability) was less than 100 nM.

With `CN(C(=O)c1cc2c(cc1F)nc(N)c1cncn12)C1CCc2nc(Br)ccc21` (stereo not shown) [Ff-209, 4-amino-N-(2-bromo-6,7-dihydro-5H-cyclopenta[b]pyridin-5-yl)-7-fluoro-N-methylimidazo[1,5-a]quinoxaline-8-carboxamide], the 50% cytotoxic concentration (CC50) (cell viability) fell in the range of 100 to 1000 nM. For the molecule `Nc1nc2cc(F)c(C(=O)N3CCC[C@@H]4Oc5cc(C(F)(F)F)ccc5[C@@H]43)cc2n2cnc(Cl)c12` (single isomer, unassigned) [Ff-647], the CC50 (cell viability assay) was less than 100 nM. For `Nc1nc2cc(F)c(C(=O)N3CCO[C@@H]4Cc5cc(C(F)F)c(F)cc5[C@@H]43)cc2n2cncc12` [Ff-168, (4-amino-7-fluoroimidazo[1,5-a]quinoxalin-8-yl)((4aS,9aR)-7-(difluoromethyl)-6-fluoro-2,3,9,9a-tetrahydroindeno[2,1-b][1,4]oxazin-4(4aH)-yl)methanone], the CC50 (cell viability) is less than 100 nM. With `CN(C(=O)c1cc2c(cc1F)nc(N)c1cncn12)[C@@H]1COc2cc(-c3cnc(C(F)F)s3)ccc21` [Ff-233, (S)-4-amino-N-(6-(2-(difluoromethyl)thiazol-5-yl)-2,3-dihydrobenzofuran-3-yl)-7-fluoro-N-methylimidazo[1,5-a]quinoxaline-8-carboxamide], the CC50 (cell viability) is less than 100 nM.

Turning to `Nc1nc2cnc(C(=O)N3CCC[C@@H]4Cc5cc(C(F)(F)F)ccc5[C@@H]43)cc2n2cncc12` (racemic) [Ff-250, Rac-(4-aminoimidazo[1,5-a]pyrido[3,4-e]pyrazin-8-yl)((4aR,9bR)-7-(trifluoromethyl)-2,3,4,4a,5,9b-hexahydro-1H-indeno[1,2-b]pyridin-1-yl)methanone], under “cell viability”, the CC50 was less than 100 nM. Same read-out and setting: then `Nc1nc2ccc(C(=O)N3CCC[C@@H]4OCc5cc(OC(F)F)ccc5[C@@H]43)cc2n2cncc12` (racemic) [Ff-288, Rac-(4-aminoimidazo[1,5-a]quinoxalin-8-yl)((4aS,10bS)-8-(difluoromethoxy)-2,3,4,4a,6,10b-hexahydro-1H-isochromeno[4,3-b]pyridin-1-yl)methanone], with less than 100 nM. Take `CN(Cc1ccc(Br)c(C(F)F)c1)C(=O)c1cc2c(cc1F)nc(N)c1cncn12` [Ff-596, 4-amino-N-(4-bromo-3-(difluoromethyl)benzyl)-7-fluoro-N-methylimidazo[1,5-a]quinoxaline-8-carboxamide]: where the note is “cell viability assay”, the CC50 is 100 to 1000 nM. `COC1(C#Cc2ccc3c(c2)OC[C@H]3N(C)C(=O)c2cc3c(cc2F)nc(N)c2cncn23)CCC1` [Ff-517, (S)-4-amino-7-fluoro-N-(6-((1-methoxycyclobutyl)ethynyl)-2,3-dihydrobenzofuran-3-yl)-N-methylimidazo[1,5-a]quinoxaline-8-carboxamide]: under “cell viability assay”, the half-maximal cytotoxic concentration (CC50) lay within 100 to 1000 nM. Consider `COc1cc(-c2cnn(C(F)F)c2)ccc1CN(C)C(=O)c1cc2c(cc1F)nc(N)c1cncn12` [Ff-553, 4-amino-N-(4-(1-(difluoromethyl)-1H-pyrazol-4-yl)-2-methoxybenzyl)-7-fluoro-N-methylimidazo[1,5-a]quinoxaline-8-carboxamide], for which the CC50 (cell viability assay) lay within 100 to 1000 nM. Regarding `Cc1ncn2c1c(N)nc1cnc(C(=O)N3[C@H](C)CC[C@@H]4Oc5cc(C(F)(F)F)ccc5[C@@H]43)cc12` (single isomer, unassigned) [Ff-611], the CC50 (cell viability assay) was less than 100 nM. As to `Nc1nc2cnc(C(=O)N3CCO[C@@H]4Cc5cc(OC(F)(F)F)ccc5[C@@H]43)cc2n2cncc12` [Ff-182, (4-aminoimidazo[1,5-a]pyrido[3,4-e]pyrazin-8-yl)((4aS,9aR)-7-(trifluoromethoxy)-2,3,9,9a-tetrahydroindeno[2,1-b][1,4]oxazin-4(4aH)-yl)methanone], the CC50 (cell viability) was less than 100 nM.
